Source: patent publication US20070112523A1 (priority 2003, published 2007)

How the values were obtained:
in vitro = conditions: African green monkey
[1] = tested on: vaccinia virus expressing the green fluorescent protein (vvGFP); assay: microbe, parasite or virus in culture; type: cell-based; conditions: for IC50: Orthopoxvirus vaccinia, BSC-40, 24 h
[2] = in vivo, po; cited from earlier work

SMILES	CC50 (in vitro) [µM]	anti-viral effect in a cell culture assay (inhibition of viral replication) [1]	IC50 [1] [µM]	bio-availability when administered orally [2]
COc1c(CCNC(=O)c2cc3ccccc3cc2O)cccc1-c1ccc([N+](=O)[O-])cc1 [TTP-A, 3-hydroxy-naphthalene-2-carboxylic acid [2-(2-methoxy-4′-nitro-biphenyl-3-yl)-ethyl]-amide]	~900	have an anti-viral effect	~12	–
COC(=O)C(Cc1ccc(-c2ccc(F)c(Cl)c2)cc1)NC(=O)c1cc(-c2ccc(C(F)(F)F)cc2)ccc1O (stereo not shown) [TTP-B, 3-(3′-chloro-4′-fluoro-biphenyl-4-yl)-2-[(4-hydroxy-4′-trifluoromethyl-biphenyl-3-carbonyl)-amino]-propionic acid methyl ester]	~600	have an anti-viral effect	~4.6	–
Nc1ccn(C[C@@H](CO)OCP(=O)(O)O)c(=O)n1 [cidofovir]	–	–	–	low bio-availability
